In patent US8227610B2, “Compositions and methods for producing cellular labels for nuclear magnetic resonance techniques” (Carnegie Mellon University, priority 2007, dated 2012):

How the values were obtained:
[1] = Critical micelle concentration estimated from light scattering intensity and particle size; format: physicochemical; parameters: critical micell concentration (CMC): unit not given here
Protocol: FIG. 1. PFPE amide 1 emulsified with Pluronic™ F68 by sonication in 1×HBSS buffer. Emulsion was diluted in 1×HBSS and particle size measured by Dynamic Light Scattering (DLS). Data represents average of two independent measurements, (mean±SD). Critical micelle concentration (CMC) of PFPE amide 1 is 22.2 mg/mL, in presence of 21.6 mol % F68 and 1×HBSS buffer, was estimated from the intersection of the graph of two curves. Measurements performed on Zetasizer Nano (Malvern, UK).
Pluronic™ F68 was dissolved in aqueous buffer (HBSS, Hyclone) at 150 mg/mL. PFPE amide 1 was added at 152 mg/mL, and the mixture (250 μL) was placed in an 1.5 mL Eppendorf vial and sonicated (at 20 W and 20 kHz) at room temperature for 30 seconds. The emulsion was then diluted 1:3 in 1×HBSS and the particle size was measured by dynamic light scattering in Malvern Zetasizer Nano within 1 h. The molar ratio of PFPE amide 1 to F68 was 4.6:1. The polydispersity (PDI) was 0.12 to 0.19 and the average particle size 200 nm. The critical micellar concentrations (CMC) for the PFPE amide 1 and F68 was estimated by plotting the light scattering intensity and average diameter and looking for the curve intersection, as shown in FIG. 1.

dendritic cells [2] = test: PFPE uptake in dendritic cells measured by 19F NMR; format: cell-based, mouse; conditions: 3 h incubation
Protocol: (§1) Labeling mouse dendritic cells was performed according to published methods with minor modifications^35. Dendritic cells were plated in 6-well plates, 1−2×10^6/well, and allowed to attach overnight. A PFPE diethyl amide 1/L35 emulsion was mixed with 0.3 mL of serum free media, incubated for 30 min at room temperature, and then added to the cells. After a 3 h incubation at 37° C., the cell labeling medium was removed and cells were washed three times with 1×PBS, detached by trypsinization, washed, and resuspended in 0.5 mL of complete media containing 10% FBS. A portion of the cell suspension (1/10) was used for cell number estimates by Cell Titer Glo. The cells were pelleted\ and resuspended in 0.1 mL of media for ^19F NMR measurements to assess the cell loading.
When dendritic cells were used, the cell suspension (0.1 mL) was mixed with 100 ul of 1% TFA solution in glycerol as a calibrated ^19F reference. The two solutions were mixed well and transferred into a 5 mm NMR tube. Cell uptake was calculated from the relative areas under the peak at −91.5 ppm (PFPE main peak) and the TFA internal standard peak at −76 ppm. Cellular uptake (i.e., the parameter Fc) was calculated as the mean number of fluorine atoms per single viable cell.

dendritic cells [3] = test: Cell number and viability of labeled dendritic cells by Cell Titer Glo; format: cell-based, mouse; conditions: after labeling
Protocol: In the examples given below, cellular number was estimated using the commercial assay Cell Titer Glo (Promega). The assay implementation is easy and highly reproducible. A correlation curve was constructed for each labeling experiment at the day of experiment using the same cell culture. When testing the viability post-labeling, a small sample (50 μL) was taken from labeled cell suspension and mixed with Cell Titer Glo reagent in triplicate. Luminescence was measured within 10 minutes and the viable cell number was estimated from a linear correlation curve prepared on the day of experiment.
as §1

Substance | critical micell concentration (CMC) ([1]; PFPE-tyramide 6/F68 24:1, thin film method, water) | uptake in DCs by 19F NMR (in words) (dendritic cells [2]) | cell viability / toxicity in DCs (in words) (dendritic cells [3]) | critical micelle concentration (CMC) ([1]; 1×HBSS) [mg/mL]
Perfluoropolyether tyramide [PFPE tyramide 6] | 4.5 | comparable to the cell labeling experiments that were facilitated with protamine sulfate | non-toxic over various doses | –
Perfluoropolyether diethyl amide [PFPE amide 1] | – | – | – | 22.2
